In patent US12486489B2, “Culture medium for testing drug resistance of H.pylori as well as preparation method and use thereof” (priority 2022, dated 2025):
Like-named read-outs stand apart in the source and are kept apart here.

Columns and labels:
[1] = tested on: H. pylori; test: Verification of resistance breakpoint: growth of laboratory strains on Columbia solid culture medium with added antibiotics, 72 hours; assay type: cell-based, Helicobacter pylori
Procedure: The plates are cooled and inverted for approximately 10 mL/piece, marked properly for the subsequent use.
(2) Preparation of bacterial solution: H. pylori grown in logarithmic phase on a solid plate is taken to prepare a bacterial suspension by using BHI. The concentration OD600 is adjusted to 0.3 (1×10^8 CFU/mL), diluted 10 times for the subsequent use.
(3) Inoculation of bacterial solution: 10 μL of bacterial solution is taken and added to Columbia culture medium and the results are determined after cultivating for 72 hours.
(4) Result determination: the minimum drug concentration for no growth of bacteria on the plate is the minimum inhibitory concentration of the bacteria against the drug.

[2] = tested on: H. pylori; test: Drug resistance testing of laboratory strains on characteristic culture medium (discoloration after 36 hours); assay type: cell-based, Helicobacter pylori
Procedure: The characteristic culture media (A, B, C, D, E) are cultivated at a constant temperature of 37° C. for 36 hours in a three gas incubator. The characteristic culture media are removed and placed in a natural environment for 30 minutes to observe whether there are discolorations at the point of the culture medium where the specimen is dropped in. […] Another 100 μL of the specimen is taken and coated on Columbia solid culture medium and cultivated in a three gas incubator at a constant temperature of 37° C. for 3 days to 5 days. The number of colonies on the plate is counted to determine the initial inoculation amount. The micro dilution method is adopted to test the MIC of clinical specimen H. pylori, the test is meaningful only when there is no bacterial growth in the negative control well without bacteria and there is bacterial growth in the positive well with bacteria but without antibiotics. […] The results are recorded and whether the micro dilution method and characteristic culture medium are consistent with each other in evaluating the drug resistance of clinical H. pylori strains is compared. […]
(2) Inoculation of bacterial solution: 10 μL bacterial solution is taken and added dropwise onto a characteristic culture medium with 5 pieces (ABCDE) in total.
(3) Culture: all plates are moved to a three gas incubator and cultivated at 37° C. for 36 hours. After being taken out and placed in a natural environment for 30 minutes, whether the bacteria have resistance is determined based on the discoloration of the characteristic culture medium.

[3] = tested on: clinical H. pylori strain; test: Drug resistance testing of clinical specimens on characteristic culture medium (discoloration after 36 hours); assay type: cell-based, Helicobacter pylori
Procedure: (§1) The characteristic culture media (A, B, C, D, E) are cultivated at a constant temperature of 37° C. for 36 hours in a three gas incubator. The characteristic culture media are removed and placed in a natural environment for 30 minutes to observe whether there are discolorations at the point of the culture medium where the specimen is dropped in. […] Another 100 μL of the specimen is taken and coated on Columbia solid culture medium and cultivated in a three gas incubator at a constant temperature of 37° C. for 3 days to 5 days. The number of colonies on the plate is counted to determine the initial inoculation amount. The micro dilution method is adopted to test the MIC of clinical specimen H. pylori, the test is meaningful only when there is no bacterial growth in the negative control well without bacteria and there is bacterial growth in the positive well with bacteria but without antibiotics.
(1) Transfer liquid preparation: after sterilization and cooling, BHI culture medium is added with 10% calf serum, followed by 30% glycerol to prepare H. pylori preservation solution. On this basis, 1% H. pylori selective additive is added to prepare the transfer liquid. 1 mL of transfer solution is taken into a sterile EP tube, and 6-8 sterilized small steel balls are poured into the EP tube for the subsequent use.
(3) Specimen acquisition: a biopsy tissue group is obtained from the gastric antrum and a small curvature side of the gastric body through a gastroscopy biopsy passage and placed into an EP tube (strictly sterile operation). The biopsy tissue is placed on the ice surface and transferred as soon as possible (within 2 hours) to complete the subsequent steps.
(4) Preparation of bacterial solution containing tissue: the EP tube containing tissue is placed in a homogenizer at 300 hz and crushed for 5 minutes, transferred to another EP, centrifuged at 12000 rpm for 2 minutes, the supernatant is discarded, BHI is resuspended to 200 μL, and a bacterial suspension is prepared for the subsequent use.
(5) Inoculation of bacterial solution: 10 μL of bacterial solution is taken and added dropwise to the characteristic culture medium (5 pieces in total). The characteristic culture medium is removed after cultivating in a three gas incubator at 37° C. for 36 hours, and the results are determined after leaving for 30 minutes; another 100 μL is taken and coated onto Colombian culture medium for the traditional bacterial culture.

[4] = tested on: clinical H. pylori strain; test: MIC of clinical H. pylori strains by micro dilution method; assay type: cell-based; conditions: Helicobacter pylori, 72 h, approximately 1.0×10^6 CFU/mL per well, 72 hours, read-out: MIC
Procedure: as §1
H. pylori single colony grown on Colombian culture medium is taken (which is confirmed as H. pylori by urease, oxidase, catalase, and PCR testing of CagA gene, as illustrated in FIG. 13) and the bacteria are increased. During the preparation of MIC plates and bacterial solution, H. pylori with logarithmic growth phase is taken to prepare a bacterial suspension by using BHI. The concentration OD600 is adjusted to 0.3 (1×10^8 CFU/mL, diluted 10 times, 10 μL is taken and added to wells 1-8 (with a bacterial solution concentration of approximately 1.0×10^6 CFU/mL per well, cultivated for 72 hours to determine the results.

[5] = tested on: H. pylori; conditions: bacterial count 1×10^6 CFU/mL; cited from earlier work

Cc1ncc([N+](=O)[O-])n1CCO [Metronidazole, metronidazole]
optimal concentration for adding antibiotics ([1]; conclusion of breakpoint verification): 4 µg/mL | growth of sensitive strains ([1]; levofloxacin 0.5, clarithromycin 0.5, metronidazole 4, amoxicillin 0.5 μg/mL): no sensitive strain grows | growth of bacterial ([1]; strain 159, antibiotic 2 μg/mL): + | growth of bacterial ([1]; strain 159, antibiotic 4 μg/mL): + | growth of bacterial ([1]; strain 159, antibiotic 8 μg/mL): − | growth of bacterial ([1]; strain 161, antibiotic 2 μg/mL): + | growth of bacterial ([1]; strain 161, antibiotic 4 μg/mL): + | growth of bacterial ([1]; strain 161, antibiotic 8 μg/mL): − | growth of bacterial ([1]; strain 162, antibiotic 2 μg/mL): + | growth of bacterial ([1]; strain 162, antibiotic 4 μg/mL): − | growth of bacterial ([1]; strain 162, antibiotic 8 μg/mL): − | growth of bacterial ([1]; strain 163, antibiotic 2 μg/mL): + | growth of bacterial ([1]; strain 163, antibiotic 4 μg/mL): + | growth of bacterial ([1]; strain 163, antibiotic 8 μg/mL): − | growth of bacterial ([1]; strain 286, antibiotic 2 μg/mL): + | growth of bacterial ([1]; strain 286, antibiotic 4 μg/mL): + | growth of bacterial ([1]; strain 286, antibiotic 8 μg/mL): − | growth of bacterial ([1]; strain 287, antibiotic 2 μg/mL): + | growth of bacterial ([1]; strain 287, antibiotic 4 μg/mL): + | growth of bacterial ([1]; strain 287, antibiotic 8 μg/mL): − | growth of bacterial ([1]; strain 289, antibiotic 2 μg/mL): + | growth of bacterial ([1]; strain 289, antibiotic 4 μg/mL): + | growth of bacterial ([1]; strain 289, antibiotic 8 μg/mL): − | growth of bacterial ([1]; strain 290, antibiotic 2 μg/mL): + | growth of bacterial ([1]; strain 290, antibiotic 4 μg/mL): + | growth of bacterial ([1]; strain 290, antibiotic 8 μg/mL): + | growth of bacterial ([1]; strain 26695, antibiotic 2 μg/mL): + | growth of bacterial ([1]; strain 26695, antibiotic 4 μg/mL): − | growth of bacterial ([1]; strain 26695, antibiotic 8 μg/mL): − | growth of bacterial ([1]; strain G27, antibiotic 2 μg/mL): + | growth of bacterial ([1]; strain G27, antibiotic 4 μg/mL): − | growth of bacterial ([1]; strain G27, antibiotic 8 μg/mL): − | drug resistance determined by discoloration of characteristic culture medium ([2]; strain 159, 1×10^6 CFU/mL): developed resistance | drug resistance determined by discoloration of characteristic culture medium ([2]; strain 286, 1×10^6 CFU/mL): have developed resistance | drug resistance determined by discoloration of characteristic culture medium ([2]; strain 287, 1×10^6 CFU/mL): have developed resistance | drug resistance determined by discoloration of characteristic culture medium ([2]; strain 289, 1×10^6 CFU/mL): have developed resistance | drug resistance determined by discoloration of characteristic culture medium ([2]; strain G27, 1×10^6 CFU/mL): does not develop resistance | drug resistance determined on characteristic culture medium ([3]; clinical H. pylori strain FY-31): sensitive | drug resistance determined on characteristic culture medium ([3]; clinical H. pylori strain FY-43): sensitive | drug resistance determined on characteristic culture medium ([3]; clinical H. pylori strain FY-47): resistant | drug resistance determined on characteristic culture medium ([3]; clinical H. pylori strain FY-52): sensitive | MIC ([4]; clinical strain FY-31): 1 µg/mL | MIC ([4]; clinical strain FY-43): 0.5 µg/mL | MIC ([4]; clinical strain FY-47): 16 µg/mL | MIC ([4]; clinical strain FY-52): 1 µg/mL | resistance breakpoints of H. pylori according to CLSI guidelines [5]: 8 µg/mL
